Laboratory results from ChEMBL document CHEMBL4308917, “Tripeptide analogues of MG132 as protease inhibitors” (Bioorg Med Chem, 2019).
Residues, ends and D or L forms follow the SMILES beside them. *: point of attachment. Cbz = O=C(OCc1ccccc1)*

Legend:
[1] = molecular target: T1, Proteasome Macropain subunit MB1 (Homo sapiens) (UniProt P28074); assay: Ratio of test compound IC50 to MG132 IC50 for chymotrypsin like activity of 26S proteasome beta 5 subunit (unknown origin) by fluorescence assay
T1 sequence (whole entry): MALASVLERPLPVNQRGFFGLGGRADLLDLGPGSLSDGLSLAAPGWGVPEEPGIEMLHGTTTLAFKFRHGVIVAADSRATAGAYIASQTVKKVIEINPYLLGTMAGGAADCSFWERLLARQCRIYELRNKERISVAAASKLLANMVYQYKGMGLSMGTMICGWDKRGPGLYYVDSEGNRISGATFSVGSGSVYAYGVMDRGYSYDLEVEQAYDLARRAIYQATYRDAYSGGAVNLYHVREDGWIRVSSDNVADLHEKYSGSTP

Plasmodium falciparum = assay: Antiplasmodial activity against Plasmodium falciparum D10 cultured in human O+ erythrocytes after 50 to 60 hrs by ethidium bromide staining-based flow cytometric analysis; format: functional, organism-based
[2] = Inhibition of chymotrypsin like activity of rabbit 20S proteasome beta 5 subunit using Suc-LLVY-AMC as substrate preincubated for 15 mins followed by substrate addition and measured after 2 hrs by fluorescence assay; parameters: species or system Oryctolagus cuniculus
[3] = Selectivity ratio of IC50 for chymotrypsin like activity of rabbit 20S proteasome beta 5 to IC50 for recombinant ovine lung calpain 2 protease
[4] = Inhibition of recombinant ovine lung calpain-2 protease using BODIPY-FL casein as substrate after 10 mins by fluorescence-based assay; parameters: species or system Ovis aries
[5] = Selectivity ratio of IC50 for chymotrypsin like activity of 26S proteasome beta 5 subunit (unknown origin) to IC50 for recombinant ovine lung calpain 2 protease
[6] = Inhibition of recombinant ovine lung calpain-1 protease using BODIPY-FL casein as substrate measured at 30 secs time interval for 30 mins by fluorescence-based assay; parameters: species or system Ovis aries
[7] = molecular target: T2, Proteasome Macropain subunit MB1 (Homo sapiens, UniProt P28074); assay: Inhibition of chymotrypsin like activity of 26S proteasome beta 5 subunit (unknown origin) by fluorescence assay
T2 sequence (P28074 whole entry): T1 sequence (whole entry)

[8] = molecular target: T3, Calpain-2 catalytic subunit (Sus scrofa, UniProt P43367); assay: Inhibition of recombinant porcine calpain 2 protease using BODIPY-FL casein as substrate measured at 30 secs time interval for 30 mins by fluorescence-based assay
T3 sequence (P43367 whole entry): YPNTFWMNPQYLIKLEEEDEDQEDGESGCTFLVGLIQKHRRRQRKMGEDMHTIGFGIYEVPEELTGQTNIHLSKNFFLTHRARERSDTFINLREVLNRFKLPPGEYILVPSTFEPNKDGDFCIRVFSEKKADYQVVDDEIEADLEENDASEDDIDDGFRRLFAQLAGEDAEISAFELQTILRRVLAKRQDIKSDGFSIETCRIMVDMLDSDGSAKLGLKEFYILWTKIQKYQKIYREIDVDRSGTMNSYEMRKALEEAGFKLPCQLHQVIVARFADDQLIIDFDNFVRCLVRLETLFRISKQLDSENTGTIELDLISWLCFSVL

[9] = Inhibition of recombinant ovine lung calpain-2 protease using BODIPY-FL casein as substrate measured at 30 secs time interval for 30 mins by fluorescence-based assay; parameters: species or system Ovis aries
Ovis aries = species: Ovis aries; assay: Potency index, ratio of MG132 IC50 to test compound IC50 for recombinant ovine lung calpain-2 protease using BODIPY-FL casein as substrate measured at 30 secs time interval for 30 mins by fluorescence-based assay

| Compound | Ratio IC50 [1] | IC50 (Plasmodium falciparum) [µM] | IC50 [2] [µM] | Ratio IC50 [3] | IC50 [4] [µM] | Ratio IC50 [5] | IC50 [6] [µM] | IC50 [7] [µM] | IC50 [8] [µM] | IC50 [9] [µM] | Ratio IC50 (Ovis aries) |
| --- | --- | --- | --- | --- | --- | --- | --- | --- | --- | --- | --- |
| C#CCOc1ccc(C[C@@H](C=O)NC(=O)[C@H](CC(C)C)NC(=O)[C@H](CCCCN=[N+]=[N-])NC(=O)OCc2ccccc2)cc1 | 16 to 428 | 0.561 | 0.15 | 0.15 | 1.03 | – | – | – | – | – | – |
| CC(C)C[C@H](NC(=O)OCc1ccccc1)C(=O)N[C@@H](CC(C)C)C(=O)N[C@@H](CC(C)C)C(=O)[C@@]1(C)CO1 | 16 to 428 | 6.13 | – | – | – | 0.05 | 9.8 | 0.22 | 4.2 | 4.4 | – |
| C#CCOc1ccc(C[C@@H](C=O)NC(=O)[C@@H](NC(=O)[C@H](CCCCN=[N+]=[N-])NC(=O)OCc2ccccc2)[C@@H](C)CC)cc1 | 16 to 428 | 0.146 | 0.02 | 0.05 | 0.39 | – | – | – | – | – | – |
| C#CCOc1ccc(C[C@@H](C=O)NC(=O)[C@H](CC(C)C)NC(=O)[C@H](Cc2ccccc2)NC(=O)OCc2ccccc2)cc1 | 16 to 428 | 0.25 | – | – | – | 14 | 0.081 | 0.189 | 0.034 | 0.013 | > 3 |
| CC(C)C[C@@H](C=O)NC(=O)[C@H](CO)NC(=O)[C@H](CC(C)C)NC(=O)OCc1ccccc1 (Cbz-Leu-Ser-Leu-aldehyde) | 16 to 428 | 0.213 | – | – | – | 2.7 | 0.04 | 0.269 | 0.16 | 0.099 | > 3 |
| CC(C)C[C@@H](C=O)NC(=O)[C@H](CC(C)C)NC(=O)[C@H](Cc1ccccc1)NC(=O)OCc1ccccc1 (Cbz-Phe-Leu-Leu-aldehyde) | 16 to 428 | 0.062 | – | – | – | 13 | 0.008 | 0.139 | 0.006 | 0.011 | > 3 |
| CC(C)C[C@H](NC(=O)[C@H](Cc1ccccc1)NC(=O)OCc1ccccc1)C(=O)N[C@H](C=O)Cc1ccccc1 (Cbz-Phe-Leu-Phe-aldehyde) | 16 to 428 | 0.191 | – | – | – | 86 | 0.051 | 0.514 | 0.027 | 0.006 | > 3 |
| CC(C)C[C@@H](C=O)NC(=O)[C@H](CC(C)C)NC(=O)[C@H](CC(C)C)NC(=O)OCc1ccccc1 [MG-132] (Cbz-Leu-Leu-Leu-aldehyde) | – | 0.035 | – | – | – | – | 0.12 | – | – | 0.311 | – |
